{
  "source": "patent US20040043055A1",
  "about": "(AJINOMOTO CO. INC., priority 2002, published 2004)",
  "key": {"[1]": {"assay": "Example 1: liver glycogen content after starvation in week 16", "format": "in vivo, C57BL/6J mice", "conditions": "24 h starvation, L-glutamine plus exercise, FIG. 5", "description": "The results of glycogen contents in the liver after starvation were the same trends as plasma insulin concentrations (FIG. 5).\n(§1) Fifty male C57BL/6J mice, 9 weeks old, were used herein. […] The experiment was conducted for 16 weeks. The mice exercised on a treadmill at moderate intensity (at 4.0 m/min) for 30 minutes a day, 5 days a week. It is known that oxygen consumption (VO2) strongly correlates with exercise intensity. However, VO2 reaches the plateau at a certain point as exercise intensity increases, which is defined as maximum oxygen consumption (VO2max). Percentage of maximum oxygen consumption (% VO2max) is one of the common ways to indicate the exercise intensity. According to Schefer V. and Talan M. I. (Exp. Gerontol. 31:387 (1996)), a running speed of 3-4 m/min which was the same intensity of exercise used herein produced a VO2 equivalent to 54-58% of the VO2max in adult C57BL/6J mice. In 16 weeks of the experiment, plasma and liver samples were obtained after overnight starvation."}, "[2]": {"assay": "Example 2: body weight, epididymal fat and abdominal fats after 6 weeks of high fat diet containing L-glutamine", "format": "in vivo, C57BL/6J mice", "conditions": "high fat diet containing 3.6% or 6.0% of L-glutamine", "description": "Forty of male C57BL/6J mice, age 5 weeks, were used herein. […] After 6 weeks of the diet feedings, body weight and epididymal fat weight were measured."}, "[3]": {"assay": "Example 1: fasting plasma insulin concentration in week 16", "format": "in vivo, C57BL/6J mice", "conditions": "FIG. 4", "description": "as §1"}, "[4]": {"assay": "Solubility limit of L-glutamine in liquid product", "format": "physicochemical"}, "[5]": {"assay": "Example 1: body weight of mice on high fat diet containing L-glutamine, with or without treadmill exercise", "format": "in vivo, C57BL/6J mice", "description": "as §1\nRelative body weight to the LF group in week 5, 10, and 16 are shown in FIGS. 1, 2, and 3, respectively.\nApplying to a human, assuming a life span of 70 years, 10 weeks and 4 months for mice correspond to 7 and 12 years for a human, respectively."}},
  "data": [
    {"molecule": "NC(=O)CC[C@H](N)C(=O)O", "note": "[L-glutamine]", "values": [
      {"measurement": "remaining glycogen content in the liver after starvation", "setting": "[1]", "result": "the lowest"},
      {"measurement": "weights of abdominal fats", "setting": "[2]", "result": "decreased in a dose-dependent manner"},
      {"measurement": "weights of epididymal fat", "setting": "[2]; FIG. 7", "result": "decreased in a dose-dependent manner"},
      {"measurement": "rates of body weight gain", "setting": "[2]; no exercise, FIG. 6", "result": "reduced by L-glutamine administrations in a dose-dependent manner"},
      {"measurement": "plasma insulin concentrations", "setting": "[3]; L-glutamine administration alone, high fat feeding", "result": "reduced plasma insulin concentrations"},
      {"measurement": "plasma insulin concentrations", "setting": "[3]; combination of L-glutamine administration and exercise", "result": "the lowest and was close to that of LF group"},
      {"measurement": "solubility limit", "setting": "[4]; 0° C.", "result": 8.3, "unit": "g per 473 milliliters"},
      {"measurement": "solubility limit", "setting": "[4]; 18° C.", "result": 12.3, "unit": "g per 473 milliliters"},
      {"measurement": "solubility limit", "setting": "[4]; 30° C.", "result": 22.7, "unit": "g per 473 milliliters"},
      {"measurement": "body weight gain by high fat feeding", "setting": "[5]; week 5, exercise groups, 6.0% L-glutamine plus exercise (6Q+EX) vs HF+EX, FIG. 1", "result": "prevented considerably"},
      {"measurement": "rate of body weight gain", "setting": "[5]; week 5, non-exercise groups, high fat diet containing 6.0% of L-glutamine (6Q) vs HF, FIG. 1", "result": "did not reduce the rate of body weight gain"},
      {"measurement": "synergistic effect of L-glutamine and exercise on body weight gain", "setting": "[5]; week 10, 6Q+EX, FIG. 2", "result": "synergistic effect lasted for 10 weeks"},
      {"measurement": "combined effects on body weight", "setting": "[5]; week 16, 6Q+EX compared to HF+EX, FIG. 3", "result": "combined effects disappeared in week 16, although lower body weight was still observed"}
    ]}
  ]
}
